According to US4382943A, “Anti-allergic aryl ether derivatives” (Boehringer Mannheim GmbH, priority 1980, dated 1983):
Counter-ions that a name gives are not always drawn.

Test system: antigen induced bronchospasm in passively sensitized guinea pigs
Experiment: Inhibition of antigen induced bronchospasm (Br Sp) in passively sensitized guinea pigs
Type: in vivo, guinea pig
Details: Cavia porcellus, po, 0.05 h, 60 min before antigen, 3 min after antigen; for inhibition in vivo at 0.38 mg/kg: 0.38 mg/kg p.o.; for inhibition in vivo at 0.75 mg/kg: 0.75 mg/kg p.o.
Procedure: Specifically, tests were run as follows: […] Equal volumes of saline solution of antigen (5 mg/ml) and Freund's complete adjuvant were emulsified and 0.15 ml injected into each hind foot of adult male guinea pigs (Davies and Johnson: Int. Arch. Allergy 41,648-654 (1971)). The animals were bled and the pooled serum stored at -20° C. Passive Sensitization Injections of 0.5 ml antiserum of 1:50 dilution were given i.v. 24-48 h before challenge. Guinea pigs were anaesthetized with phenobarbital sodium (40 mg/kg i.p.). Cannulae were tied into the trachea and the jugular vein and the lung inflated with a pump at a rate of 72 strokes/min and a constant stroke volume of 6-8 ml. Bronchospasm, provoked by injecting ovalbumin i.v. was measured as described by Konzett, H. and R. Rossler, "Versuchsanordnung su Untersuchungen an der Bronchialmuskulatur" Naunyn-Schmiedebergs, Arch. exp. Path. Pharmak. 195, 71-74 (1940) and modified by Collier, […] and M. Schachter: "The Bronchoconstrictor Action of Bradykinin in the Guinea-Pig" Brit. J. Pharmacol. 15, 290 (1960). The drugs were applied per os 60 minutes before the antigen. For calculation the following formula was used: % Bronchospasm (b-a)/(m-a)×100 b=Bronchospasm after antigen injection, measured in mm from tracing m=maximum height of tracing in mm with arm of the tracheacannula clamped a=pre injection height of the tracing in mm % inhibition of bronchospasm was calculated by comparing control groups with drug pretreated groups 3 minutes after antigen application.

Structure (SMILES)	inhibition in vivo at 0.38 mg/kg	inhibition in vivo at 0.75 mg/kg	other results
O=C(NC1CCN(CCCOc2ccc3c4c(c(=O)oc3c2)CCC4)CC1)c1ccccc1 [Example 1, 7-[3-(4-Benzamidopiperidino)-propoxy]-2,3-dihydrocyclopenta[c][1]benzopyran-4(1H)one hydrochloride]	47%	–	–
O=C(NC1CCN(CCCOc2ccc3c4c(c(=O)oc3c2)CCC4)CC1)c1ccc(F)cc1 [Example 2, 2,3-dihydro-7-{3-[4-(4-fluorobenzamido)-piperidino]-propoxy}-cyclopenta[c][1]benzopyran-4(1H)-one hydrochloride]	67%	–	–
Cc1ccccc1C(=O)NC1CCN(CCCOc2ccc3c4c(c(=O)oc3c2)CCC4)CC1 [Example 4, 2,3-dihydro-7-{3-[4-(2-methylbenzamido)-piperidino]-propoxy}-cyclopenta[c][1]benzopyran-4(1H)-one]	–	76%	–
O=C(Cc1ccccc1)NC1CCN(CCCOc2ccc3c4c(c(=O)oc3c2)CCC4)CC1 [Example 8, 2,3-dihydro-7-[3-(4-phenylacetamido-piperidino)-propoxy]-cyclopenta-[c][1]benzopyran-4(1H)-one]	–	70%	–
CC(=O)c1c(OCCCN2CCC(NC(=O)c3ccccc3)CC2)ccc2c3c(c(=O)oc12)CCC3 [Example 14, 6-acetyl-7-[3-(4-benzamido-piperidino)-propoxy]-2,3-dihydro-cyclopenta[c][1]benzopyran-4(1H)-one]	79%	–	–
O=C(NC1CCN(CCCOc2ccc3c4c(c(=O)oc3c2)CCCC4)CC1)c1ccc(F)cc1 [Example 17, 3-{3-[4-(4-fluorobenzamido)-piperidino]-propoxy}-7,8,9,10-tetrahydro-6H--dibenzo[b,d]pyran-6-one hydrochloride]	58%	–	–
COc1ccc(C(=O)NC2CCN(CCCOc3ccc4c5c(c(=O)oc4c3)CCCC5)CC2)cc1 [Example 18, 3-{3-[4-(4-methoxybenzamido)-piperidino]-propoxy}-7,8,9,10-tetrahydro-6H--dibenzo[b,d]-pyran-6-one]	35%	87%	–
Cc1ccccc1C(=O)NC1CCN(CCCOc2ccc3c4c(c(=O)oc3c2)CCCC4)CC1 [Example 21, 3-{3-[4-(2-methyl-benzamido)-piperidino]-propoxy}-7,8,9,10-tetrahydro-6H--dibenzo[b,d]pyran-6-one]	51%	78%	–
CC(C)(C)NCC(O)c1cc(O)cc(O)c1 (stereo not drawn) [Terbutalin, reference compound]	–	–	inhibition in vivo at 0.1 mg/kg (0.1 mg/kg p.o.): 12%; inhibition in vivo at 1 mg/kg (1.0 mg/kg p.o.): 52%
